From US9359367B2, “Tetrahydroquinazolinone derivatives as PARP inhibitors” (Lupin Limited, priority 2012, dated 2016)

What follows are compounds tested against T1, PARP1 (Homo sapiens, UniProt P09874) (assay: PARP1 Biochemical Assay (BPS Bioscience kit, chemiluminescence)). Details: histone-coated plate, biotinilated NAD+, 25° C. for 60 min, luminescence, read-out: PARP 1 inhibition IC50.
T1 construct: purchased BPS Bioscience
T1 sequence (P09874 whole entry): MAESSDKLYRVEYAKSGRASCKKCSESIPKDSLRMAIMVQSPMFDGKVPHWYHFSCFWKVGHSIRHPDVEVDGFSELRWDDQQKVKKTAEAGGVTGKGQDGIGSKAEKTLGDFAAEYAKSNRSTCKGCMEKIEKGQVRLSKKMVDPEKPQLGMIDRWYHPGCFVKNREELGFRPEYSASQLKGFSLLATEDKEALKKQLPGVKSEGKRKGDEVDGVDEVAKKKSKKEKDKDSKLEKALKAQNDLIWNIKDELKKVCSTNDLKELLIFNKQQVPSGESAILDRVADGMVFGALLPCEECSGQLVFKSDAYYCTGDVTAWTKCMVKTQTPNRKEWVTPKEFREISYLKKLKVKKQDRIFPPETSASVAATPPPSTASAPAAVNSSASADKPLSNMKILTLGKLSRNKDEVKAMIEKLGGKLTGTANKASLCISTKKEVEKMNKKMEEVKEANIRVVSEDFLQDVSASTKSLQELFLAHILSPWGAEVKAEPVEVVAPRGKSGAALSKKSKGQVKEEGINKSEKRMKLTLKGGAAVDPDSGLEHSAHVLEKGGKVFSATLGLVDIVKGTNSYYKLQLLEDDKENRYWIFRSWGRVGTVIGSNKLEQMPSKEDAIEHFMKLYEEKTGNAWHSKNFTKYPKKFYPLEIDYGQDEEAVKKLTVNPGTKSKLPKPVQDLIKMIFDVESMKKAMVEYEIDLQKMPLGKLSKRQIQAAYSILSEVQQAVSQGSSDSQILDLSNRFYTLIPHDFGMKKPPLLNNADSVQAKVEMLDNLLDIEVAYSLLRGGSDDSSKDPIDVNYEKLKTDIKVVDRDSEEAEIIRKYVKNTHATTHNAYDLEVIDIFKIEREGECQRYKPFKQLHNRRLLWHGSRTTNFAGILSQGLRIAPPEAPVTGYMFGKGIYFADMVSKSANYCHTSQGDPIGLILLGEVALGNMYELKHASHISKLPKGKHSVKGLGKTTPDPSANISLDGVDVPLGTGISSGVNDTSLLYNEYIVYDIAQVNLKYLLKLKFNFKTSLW
Protocol: The assay was performed using BPS Bioscience kit. The 96-well strip plate was coated with 50 μl of histone mixture and incubated at 4° C. overnight. Next day the wells were blocked by adding 100 μl of blocking buffer. The plate was washed and 25 μl of appropriate concentration of PARP1 (25-75 ng/well) was added in all the Test and Positive control wells. In Negative control wells enzyme was replaced with 25 μl of water. To it 5 μl each of 10×PARP assay buffer and activated DNA was added in all the wells (Test, Positive and Negative control wells). 10× concentration of test compounds were prepared and 5 μl test compounds were added respective wells. Reaction volume was made up to 45 μl by adding water to all the wells. Finally, 5 μl of 10×PARP assay mixture containing biotinilated NAD^+ was added in each well and the plate was incubated at ambient temperature (25° C.) for 60 min. After washing the plate 50 μl of Streptavidin-HRP was added in each well and incubated the plate at RT for 30 min. The plate was washed and the luminescence was read in PHERAStar plate reader after adding 100 μl of chemiluminescent substrate.
PARP inhibition was calculated using the following formula: % PARP inhibition=100−[(RLU test compound treated sample−RLU negative control)/(RLU Positive control−RLU negative control)×100]
IC50 values were calculated by plotting % inhibition against the respective concentrations of test compounds using GraphPad Prism 5.
O=c1[nH]c(C2=C[C@H](N3CCN(c4c(F)cccc4F)CC3)CC2)nc2c1CC1(CC2)CC1 [Compound 110, (R)-2′-(3-(4-(2,6-difluorophenyl)piperazin-1-yl)cyclopent-1-en-1-yl)-7′,8′-dihydro-3′H-spiro[cyclopropane-1,6′-quinazolin]-4′(5′H)-one] showed an IC50 of 501 to 5000 nM.
Cc1cccnc1N1CCN([C@H]2C=C(c3nc4c(c(=O)[nH]3)CC3(CC4)CC3)CC2)CC1 [Compound 132, (R)-2′-(3-(4-(3-methylpyridin-2-yl)piperazin-1-yl)cyclopent-1-en-1-yl)-7′,8′-dihydro-3′H-spiro[cyclopropane-1,6′-quinazolin]-4′(5′H)-one] gave an IC50 of 1 to 500 nM.
In the case of O=c1[nH]c([C@H]2CC[C@@H](N3CCN(c4cccc(F)c4)CC3)C2)nc2c1CC1(CC2)CC1 [Compound 155, 2′-((1S,3R)-3-(4-(3-fluorophenyl)piperazin-1-yl)cyclopentyl)-7′,8′-dihydro-3′H-spiro[cyclopropane-1,6′-quinazolin]-4′(5′H)-one], the IC50 is reported as 501 to 5000 nM.
Compound O=c1[nH]c(CCCN2CCN(c3ccc(F)cc3)CC2)nc2c1CCC1(CC1)C2 [Compound 15, 2′-(3-(4-(4-fluorophenyl)piperazin-1-yl)propyl)-5′,6′-dihydro-3′H-spiro[cyclopropane-1,7′-quinazolin]-4′(8′H)-one] has an IC50 of 5000 to 500000 nM.
CNC(=O)c1cnc(N2CCN([C@H]3C=C(c4nc5c(c(=O)[nH]4)CC4(CC5)CC4)CC3)CC2)s1 [Compound 104, (R)—N-methyl-2-(4-(3-(4′-oxo-4′,5′,7′,8′-tetrahydro-3′H-spiro[cyclopropane-1,6′-quinazolin]-2′-yl)cyclopent-2-en-1-yl)piperazin-1-yl)thiazole-5-carboxamide] showed an IC50 of 1 to 500 nM.
Compound Cc1ccc(C)c(N2CCN([C@H]3C=C(c4nc5c(c(=O)[nH]4)CC4(CC5)CC4)CC3)CC2)c1 [Compound 144, (R)-2′-(3-(4-(2,5-dimethylphenyl)piperazin-1-yl)cyclopent-1-en-1-yl)-7′,8′-dihydro-3′H-spiro[cyclopropane-1,6′-quinazolin]-4′(5′H)-one] has an IC50 of 501 to 5000 nM.
Compound O=c1[nH]c(CCCN2CCN(c3ccc(F)cc3)CC2)nc2c1CCCC21CC1 [Compound 1, 2′-(3-(4-(4-fluorophenyl)piperazin-1-yl)propyl)-6′,7′-dihydro-3′H-spiro[cyclopropane-1,8′-quinazolin]-4′(5′H)-one] has an IC50 of 1 to 500 nM.
CNC(=O)c1ccc(N2CCN([C@H]3C=C(c4nc5c(c(=O)[nH]4)CC4(CC5)CC4)CC3)CC2)c(F)c1 [Compound 68, (R)-3-fluoro-N-methyl-4-(4-(3-(4′-oxo-4′,5′,7′,8′-tetrahydro-3′H-spiro[cyclopropane-1,6′-quinazolin]-2′-yl)cyclopent-2-en-1-yl)piperazin-1-yl)benzamide] gave an IC50 of 1 to 500 nM.
CC1(C)CN(c2ccc(F)cc2)CCN1[C@H]1C=C(c2nc3c(c(=O)[nH]2)CC2(CC3)CC2)CC1 [Compound 67, (R)-2′-(3-(4-(4-fluorophenyl)-2,2-dimethylpiperazin-1-yl)cyclopent-1-en-1-yl)-7′,8′-dihydro-3′H-spiro[cyclopropane-1,6′-quinazolin]-4′(5′H)-one] gave an IC50 of 5000 to 500000 nM.
With O=c1[nH]c(C2=C[C@H](N3CCC(c4ccc(F)cc4)CC3)CC2)nc2c1CC1(CC2)CC1 [Compound 75, (R)-2′-(3-(4-(4-fluorophenyl)piperidin-1-yl)cyclopent-1-en-1-yl)-7′,8′-dihydro-3′H-spiro[cyclopropane-1,6′-quinazolin]-4′(5′H)-one] the IC50 was 1 to 500 nM.
Work on Cc1ccnc(N2CCN([C@H]3C=C(c4nc5c(c(=O)[nH]4)CC4(CC5)CC4)CC3)CC2)c1 [Compound 125, (R)-2′-(3-(4-(4-methylpyridin-2-yl)piperazin-1-yl)cyclopent-1-en-1-yl)-7′,8′-dihydro-3′H-spiro[cyclopropane-1,6′-quinazolin]-4′(5′H)-one] yielded an IC50 of 1 to 500 nM.
O=c1[nH]c(CCCN2CC=C(c3ccccc3)CC2)nc2c1CCC1(CC1)C2 [Compound 17, 2′-(3-(4-phenyl-5,6-dihydropyridin-1(2H)-yl)propyl)-5′,6′-dihydro-3′H-spiro[cyclopropane-1,7′-quinazolin]-4′(8′H)-one] gave an IC50 of 5000 to 500000 nM.
Work on CN(C)C(=O)c1ccc(N2CCN([C@H]3C=C(c4nc5c(c(=O)[nH]4)CC4(CC5)CC4)CC3)CC2)cc1 [Compound 69, (R)—N,N-dimethyl-4-(4-(3-(4′-oxo-4′,5′,7′,8′-tetrahydro-3′H-spiro[cyclopropane-1,6′-quinazolin]-2′-yl)cyclopent-2-en-1-yl)piperazin-1-yl)benzamide] yielded an IC50 of 5000 to 500000 nM.
Work on CNC(=O)c1cnc(N2CCN([C@H]3C=C(c4nc5c(c(=O)[nH]4)CC4(CC5)CC4)CC3)CC2)c(F)c1 [Compound 112, (R)-5-fluoro-N-methyl-6-(4-(3-(4′-oxo-4′,5′,7′,8′-tetrahydro-3′H-spiro[cyclopropane-1,6′-quinazolin]-2′-yl)cyclopent-2-en-1-yl)piperazin-1-yl)nicotinamide] yielded an IC50 of 501 to 5000 nM.
For CNC(=O)c1ccc(N2CCN([C@@H]3C=C(c4nc5c(c(=O)[nH]4)CC4(CC5)CC4)CC3)CC2)cc1 [Compound 53, (S)—N-methyl-4-(4-(3-(4′-oxo-4′,5′,7′,8′-tetrahydro-3′H-spiro[cyclopropane-1,6′-quinazolin]-2′-yl)cyclopent-2-en-1-yl)piperazin-1-yl)benzamide], the IC50 was 1 to 500 nM.
For O=c1[nH]c(C2=C[C@H](N3CCN(c4cc(F)cc(F)c4)CC3)CC2)nc2c1CC1(CC2)CC1 [Compound 109, (R)-2′-(3-(4-(3,5-difluorophenyl)piperazin-1-yl)cyclopent-1-en-1-yl)-7′,8′-dihydro-3′H-spiro[cyclopropane-1,6′-quinazolin]-4′(5′H)-one], the IC50 was 1 to 500 nM.
With O=c1[nH]c(C2=C[C@H](N3CCN(c4ccc(Cl)c(F)c4)CC3)CC2)nc2c1CC1(CC2)CC1 [Compound 86, (R)-2′-(3-(4-(4-chloro-3-fluorophenyl)piperazin-1-yl)cyclopent-1-en-1-yl)-7′,8′-dihydro-3′H-spiro[cyclopropane-1,6′-quinazolin]-4′(5′H)-one] the IC50 was 1 to 500 nM.
O=c1[nH]c(C2=C[C@H](N3CCN(c4cc(Cl)ccc4F)CC3)CC2)nc2c1CC1(CC2)CC1 [Compound 138, (R)-2′-(3-(4-(5-chloro-2-fluorophenyl)piperazin-1-yl)cyclopent-1-en-1-yl)-7′,8′-dihydro-3′H-spiro[cyclopropane-1,6′-quinazolin]-4′(5′H)-one] showed an IC50 of 501 to 5000 nM.
In the case of O=c1[nH]c(C2=C[C@H](N3CCN(c4cc(F)ccc4F)CC3)CC2)nc2c1CC1(CC2)CC1 [Compound 106, (R)-2′-(3-(4-(2,5-difluorophenyl)piperazin-1-yl)cyclopent-1-en-1-yl)-7′,8′-dihydro-3′H-spiro[cyclopropane-1,6′-quinazolin]-4′(5′H)-one], the IC50 is reported as 1 to 500 nM.
With O=c1[nH]c(C2=C[C@H](N3CCN(c4ccc(F)cc4Cl)CC3)CC2)nc2c1CC1(CC2)CC1 [Compound 79, (R)-2′-(3-(4-(2-chloro-4-fluorophenyl)piperazin-1-yl)cyclopent-1-en-1-yl)-7′,8′-dihydro-3′H-spiro[cyclopropane-1,6′-quinazolin]-4′(5′H)-one] the IC50 was 1 to 500 nM.
O=c1[nH]c([C@@H]2CC[C@@H](N3CCN(c4cccc(F)c4)CC3)C2)nc2c1CC1(CC2)CC1 [Compound 156, 2′-((1R,3R)-3-(4-(3-fluorophenyl)piperazin-1-yl)cyclopentyl)-7′,8′-dihydro-3′H-spiro[cyclopropane-1,6′-quinazolin]-4′(5′H)-one] showed an IC50 of 5000 to 500000 nM.
Work on O=c1[nH]c(C2=C[C@H](N3CCN(c4ccccc4)CC3)CC2)nc2c1CC1(CC2)CC1 [Compound 117, (R)-2′-(3-(4-phenylpiperazin-1-yl)cyclopent-1-en-1-yl)-7′,8′-dihydro-3′H-spiro[cyclopropane-1,6′-quinazolin]-4′(5′H)-one] yielded an IC50 of 1 to 500 nM.
CNC(=O)c1ccnc(N2CCN([C@H]3C=C(c4nc5c(c(=O)[nH]4)CC4(CC5)CC4)CC3)CC2)c1 [Compound 130, (R)—N-methyl-2-(4-(3-(4′-oxo-4′,5′,7′,8′-tetrahydro-3′H-spiro[cyclopropane-1,6′-quinazolin]-2′-yl)cyclopent-2-en-1-yl)piperazin-1-yl)isonicotinamide] gave an IC50 of 501 to 5000 nM.
In the case of CNC(=O)c1ccc(N2CCN([C@H]3C=C(c4nc5c(c(=O)[nH]4)CC4(CC5)CC4)CC3)CC2)cc1F [Compound 89, (R)-2-fluoro-N-methyl-4-(4-(3-(4′-oxo-4′,5′,7′,8′-tetrahydro-3′H-spiro[cyclopropane-1,6′-quinazolin]-2′-yl)cyclopent-2-en-1-yl)piperazin-1-yl)benzamide], the IC50 is reported as 1 to 500 nM.
With CNC(=O)c1ccc(N2CCN([C@H]3C=C(c4nc5c(c(=O)[nH]4)CC4(CC5)CC4)CC3)CC2)c(C)c1 [Compound 97, (R)—N, 3-dimethyl-4-(4-(3-(4′-oxo-4′,5′,7′,8′-tetrahydro-3′H-spiro[cyclopropane-1,6′-quinazolin]-2′-yl)cyclopent-2-en-1-yl)piperazin-1-yl)benzamide] the IC50 was 1 to 500 nM.
Cc1cc(N2CCN([C@H]3C=C(c4nc5c(c(=O)[nH]4)CC4(CC5)CC4)CC3)CC2)ccc1F [Compound 80, (R)-2′-(3-(4-(4-fluoro-3-methylphenyl)piperazin-1-yl)cyclopent-1-en-1-yl)-7′,8′-dihydro-3′H-spiro[cyclopropane-1,6′-quinazolin]-4′(5′H)-one] gave an IC50 of 1 to 500 nM.
